Molecular target: T1, Slr1694 (SyPixD) (Synechocystis sp. PCC 6803, UniProt P74295)
T1 construct: wild type, expressed from pET28a(+)-slr1694 in E. coli CpX strains (CpXribF, CpXdeltaY); N-terminal vector extension (peptide 33-GSEFMSLYR-41 seen by MS); flavin incorporated in vivo; unlabeled, ring-13C6-Tyr or 13C apoprotein
T1 sequence (P74295 1-150): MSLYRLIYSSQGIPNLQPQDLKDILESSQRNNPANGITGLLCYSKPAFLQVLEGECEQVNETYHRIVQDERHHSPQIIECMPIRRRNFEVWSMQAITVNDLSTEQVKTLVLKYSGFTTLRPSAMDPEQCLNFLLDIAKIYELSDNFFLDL
Assay: light-minus-dark FTIR difference spectroscopy of holoprotein
Type: binding
Conditions: in H2O; blue light 460 nm; non-covalent flavin incorporated in vivo (unlabeled riboflavin fed); bound flavin species not analysed, FMN and FAD named

Cc1cc2nc3c(=O)[nH]c(=O)nc-3n(C[C@H](O)[C@H](O)[C@H](O)COP(=O)(O)OP(=O)(O)OC[C@H]3O[C@@H](n4cnc5c(N)ncnc54)[C@H](O)[C@@H]3O)c2cc1C [FAD]
light-minus-dark FTIR difference spectroscopy of holoprotein: unlabeled riboflavin was provided in the medium throughout the cultivation procedure for the production of FMN and FAD cofactors
